# From BindingDB's records for doi:10.7270/Q2W37TT2 (Johns Hopkins Ion Channel Center, 2011)
# Target: Potassium voltage-gated channel subfamily KQT member 2 (Rattus norvegicus, UniProt O88943)
# Assay: blockers of KCNQ2 channel current – cell-based, automated electrophysiology, set II, rat KCNQ2, dose response (AID 588637)
# Sequence of Potassium voltage-gated channel subfamily KQT member 2 (O88943 whole entry): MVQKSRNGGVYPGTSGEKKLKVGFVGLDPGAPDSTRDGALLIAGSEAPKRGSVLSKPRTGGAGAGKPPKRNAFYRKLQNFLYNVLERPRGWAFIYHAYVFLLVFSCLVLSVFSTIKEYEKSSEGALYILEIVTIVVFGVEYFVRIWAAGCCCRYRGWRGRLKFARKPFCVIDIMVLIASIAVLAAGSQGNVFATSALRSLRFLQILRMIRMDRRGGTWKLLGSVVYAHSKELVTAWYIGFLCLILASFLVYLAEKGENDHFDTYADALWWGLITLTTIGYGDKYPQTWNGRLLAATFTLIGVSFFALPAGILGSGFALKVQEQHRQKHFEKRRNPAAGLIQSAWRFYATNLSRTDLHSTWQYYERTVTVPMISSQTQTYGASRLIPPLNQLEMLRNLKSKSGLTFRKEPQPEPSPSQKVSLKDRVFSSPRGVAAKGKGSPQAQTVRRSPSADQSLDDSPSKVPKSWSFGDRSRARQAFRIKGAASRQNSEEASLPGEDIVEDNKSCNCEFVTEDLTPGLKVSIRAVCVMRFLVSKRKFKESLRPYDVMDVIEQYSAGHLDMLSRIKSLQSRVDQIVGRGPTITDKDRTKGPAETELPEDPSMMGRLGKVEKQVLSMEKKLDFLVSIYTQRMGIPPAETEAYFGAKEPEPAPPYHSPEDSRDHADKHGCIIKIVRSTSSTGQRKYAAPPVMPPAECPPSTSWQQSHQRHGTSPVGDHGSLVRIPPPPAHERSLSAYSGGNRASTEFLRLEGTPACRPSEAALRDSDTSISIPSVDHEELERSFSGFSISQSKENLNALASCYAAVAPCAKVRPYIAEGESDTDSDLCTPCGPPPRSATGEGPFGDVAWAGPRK
row,Compound,IC50
1,COc1ccc(-[n+]2c(-c3ccccc3)cc(-c3ccc(C)cc3)cc2-c2ccccc2)cc1,11.1 µM
2,"CC(N=Nc1nc(N2CCCCCC2)nc(N2CCCCCC2)n1)c1ccccc1 (configuration not stated) [(1E)-1-phenylethanone (4,6-diazepan-1-yl-1,3,5-triazin-2-yl)hydrazone]",1.62 µM
